Results as given in patent US20090221624A1, “4-AMINOQUINOLINE COMPOUNDS FOR TREATING VIRUS-RELATED CONDITIONS” (priority 2005, published 2009).
Like-named read-outs stand apart in the source and are kept apart here.

Experiments:
[1] = system: HCV replicon (Clone A cells, Huh7, subgenomic hepatits C virus RNA); test: HCV Neo screening assay (HCV replicon, NPTII ELISA); type: cell-based, hepatitis C virus; conditions: for EC50 / inhibition at 25 µM: Hepatitis C virus, Huh-7; for EC50: Secondary Data, HCV; for inhibition at 25 µM: primary screening, 25 μM final concentration, 24 hours, percent inhibition of viral replication, read-out: HCV Inh; for HCV TI: therapeutic index CC50/EC50, HCV
RSV minigenome = test: RSV minigenome-dependent β-galactosidase expression assay (RSV β-Gal); type: cell-based, respiratory syncytial virus; conditions: for EC50: Secondary Data, RSV, read-out: RSV EC50; for inhibition at 25 µM: primary screening, 25 μM final concentration, 24 hours, percent inhibition of viral replication, read-out: RSV Inh; for RSV TI: therapeutic index CC50/EC50, RSV
SINV (SR19-F-luc cells) = test: SINV antiviral activity, SR19-F-luc cells, Firefly luciferase; type: cell-based; conditions: Sindbis virus; for inhibition at 25 µM: primary screening, 25 μM final concentration, 24 hours, percent inhibition of viral replication, read-out: SINV Inh; for EC50: secondary screening, SR19-F-luc cells
WNV (WN-hRuPac cells) = test: WNV antiviral activity, WN-hRuPac cells, Renilla luciferase; type: cell-based, West Nile virus; conditions: for EC50 / inhibition at 25 µM: West Nile virus; for EC50: Secondary Data, WNV, read-out: WNV EC50; for inhibition at 25 µM: primary screening, 25 μM final concentration, 24 hours, percent inhibition of viral replication, read-out: WNV Inh; for WNV TI: therapeutic index CC50/EC50, WNV
EBOV minigenome = test: microbe, parasite or virus in culture; type: cell-based, Ebola virus; conditions: for inhibition at 25 µM / EC50: Zaire ebolavirus; for inhibition at 25 µM: 24 h, read-out: EBOV Inh; for EC50: read-out: EBOV EC50
YFV (YF-hRuPac cells) = test: microbe, parasite or virus in culture; type: cell-based, yellow fever virus; conditions: for inhibition at 25 µM / EC50: Yellow fever virus; for inhibition at 25 µM: 24 h, read-out: YFV Inh; for EC50: read-out: YFV EC50
DNG (D2-hRuPac cells) = test: DNG antiviral activity, D2-hRuPac cells, Renilla luciferase; type: cell-based, Dengue fever virus; conditions: Dengue virus, secondary screening
[2] = human respiratory syncytial virus

| Structure (SMILES) | inhibition at 25 µM [1] | CC50 (in vitro; DNG CC50) | CC50 (in vitro; EBOV CC50) | CC50 (in vitro; HCV CC50) | CC50 (in vitro; RSV CC50) | CC50 (in vitro; SINV CC50) | CC50 (in vitro; WNV CC50) | CC50 (in vitro; YFV CC50) | EC50 (RSV minigenome; [2]) | inhibition at 25 µM (RSV minigenome; [2]) | RSV TI (RSV minigenome) | inhibition at 25 µM (SINV (SR19-F-luc cells)) | EC50 (WNV (WN-hRuPac cells)) | inhibition at 25 µM (WNV (WN-hRuPac cells)) | WNV TI (WNV (WN-hRuPac cells)) | inhibition at 25 µM (EBOV minigenome) | EC50 (EBOV minigenome) | YFV TI (YFV (YF-hRuPac cells)) | inhibition at 25 µM (YFV (YF-hRuPac cells)) | EC50 (YFV (YF-hRuPac cells)) | also measured |
| --- | --- | --- | --- | --- | --- | --- | --- | --- | --- | --- | --- | --- | --- | --- | --- | --- | --- | --- | --- | --- | --- |
| Cc1cccc(Nc2c3c(nc4ccccc24)CCC3)c1 [Compound 11] | 143% | 28.8 µM | 28.8 µM | 9.67 µM | 28.8 µM | 28.8 µM | 28.8 µM | 28.8 µM | 2.9 µM | 99.5% | 9.91 | 81.7% | 9.79 µM | 75% | 2.94 | 62.7% | 25.9 µM | 5.74 | 79.1% | 5.01 µM | EC50 [1]: 3.37 µM; HCV TI [1]: 2.87; EC50 (SINV (SR19-F-luc cells)): 2.8 µM |
| Cc1cc(NNC(=O)OCc2ccccc2)c2ccccc2n1 [Compound 78] | – | 51.1 µM | 51.1 µM | ≥ 75 µM | 51.1 µM | 51.1 µM | 51.1 µM | 51.1 µM | 1.38 µM | – | 37.03 | – | ≥ 75 µM | – | 0.68 | 42.3% | 75 µM | 2.95 | – | 17.3 µM | EC50 (DNG (D2-hRuPac cells)): 57 µM; EC50 (SINV (SR19-F-luc cells)): 7.54 µM |
| COc1ccccc1Nc1cc(C)nc2c(C)c(C)cc(N)c12 [Compound 77] | – | 52.6 µM | 52.6 µM | – | 52.6 µM | 52.6 µM | 52.6 µM | 52.6 µM | – | – | 11.07 | – | – | – | – | – | 75 µM | – | – | – | EC50 (RSV minigenome): 4.75 µM; EBOV Inh (EBOV minigenome): 94.37% |
| Cc1ccc(Nc2cc(C)nc3ccc(C)cc23)cc1 [Compound 6] | 187% | 35.2 µM | 35.2 µM | 11.7 µM | 35.2 µM | 35.2 µM | 35.2 µM | 35.2 µM | 9.86 µM | 91.2% | 3.57 | 76.8% | 38.7 µM | 79.1% | 0.91 | 42.7% | – | 2.73 | 77.7% | 12.9 µM | EC50 [1]: 14 µM; HCV TI [1]: 0.84; EC50 (SINV (SR19-F-luc cells)): 2.3 µM |
| CCOC(=O)c1cnc2c(OC)cccc2c1NCCCO [Compound 70] | 55.6% | 45.8 µM | 45.8 µM | ≥ 75 µM | 45.8 µM | 45.8 µM | 45.8 µM | 45.8 µM | 3.02 µM | 95.8% | 15.15 | 64.5% | – | 14.6% | – | 74.7% | 69.7 µM | – | 62.6% | – | – |
| CCOC(=O)c1cnc2c(Cl)c(Cl)ccc2c1NCc1ccco1 [Compound 19] | 50.9% | 20.9 µM | 20.9 µM | – | 20.9 µM | 20.9 µM | 20.9 µM | 20.9 µM | 1.77 µM | 82.3% | 11.81 | 11.9% | 3.98 µM | 80.6% | 5.25 | 0.97% | 75 µM | 7.98 | 93.2% | 2.62 µM | – |
| CCOC(=O)c1cnc2c(OC)cccc2c1NCc1ccccc1 [Compound 62] | -5.83% | 43.5 µM | 43.5 µM | – | 43.5 µM | 43.5 µM | 43.5 µM | 43.5 µM | 3.73 µM | 99% | 11.66 | 81.3% | – | 67.7% | – | 97.4% | 75 µM | – | 76.6% | – | – |
